The record followed here is patent publication US7858125B2, “Multi-component biocide composition for wood protection” (priority 2006, dated 2010).

Test [1] deals with mixed spore preparation of Aspergillus niger, Penicillium chrysogenum and Trichoderma viride. Nature of the test: Mold resistance of dip-treated wood stakes (ASTM D4445-91), mixed mold spore inoculum. The conditions noted are these: Example 4; unseasoned southern yellow pine stakes dip-treated 15 s, 4 weeks, 27° C., 70% RH; scale 0-5. The format is cell-based. From the text:
The biocide compositions were first tested for the efficacy in preventing mold fungal growth. The mold fungi used in the mold growth analysis included Aspergillus niger 2.242 (available from University of Virginia, Charlottesville, Va.), Penicillium chrysogenum PH02 (an isolate provided by Forest Products Laboratory, Madison, Wis.) and Trichoderma viride ATCC 20476 (available from American Type Culture Collection, Rockville, Md.). The mold fungi were first prepared by growing the various mold fungi species on 2% malt agar. A mixed spore preparation was then prepared by washing the surface of a 2-week old culture of each fungus with 10 milliliters of sterile deionized (DI) water according to the American Society for Testing and Materials (ASTM) standard D4445-91 (1998). Spore suspensions were transferred to a spray bottle and diluted to 100 milliliters with DI water. The spray bottle was adjusted to deliver 1 milliliter inoculum/spray.
Specimens (7×20 millimeters cross section by 7 centimeters long) were cut from unseasoned southern yellow pine mill ends from a Mississippi sawmill and stored at 0° C. Average moisture content of the specimens was 48% by weight (n=3). Southern yellow pine oriented strand board (OSB) specimens (11×20 millimeters cross section by 7 centimeters long) were cut from a full sheet of OSB and conditioned to 70% relative humidity. Five replicate specimen stakes were dip-treated for approximately 15 seconds in each biocide composition and held in a covered container overnight according to the ASTM standard test method D4445-91 (1998). Specimens were then arranged over four layers of blotting paper that was saturated with 30 milliliters DI water and a polyethylene mesh spacer in sterile disposable Petri dishes (150×25 millimeters) (commercially available from B-D Falcon, Los Angeles, Calif.). Untreated stakes were dipped in DI water and served as Control A for water-based test chemicals. Additional stakes were dipped in 70% (by weight) ethanol to serve as Control B for test chemicals of low solubility. […]

In test [2] the test system is Reticulotermes flavipes (Kollar). Description: Termite bioassay, no-choice test procedure. The format is in vivo. Particulars: dip-treated southern yellow pine blocks, four weeks; for Termite Bioassay Mortality Rating: 1 gram of termites, 27° C., 80% RH; for Termite Bioassay Attack Rating: visual rating 10 (no attack), 9 light, 7 moderate, 4 heavy, 0 (complete failure). From the text:
The biocide compositions were additionally evaluated for their ability to inhibit termite infestation. Specifically, numerous samples of the subterranean termite, Reticulotermes flavipes (Kollar), were collected in Janesville, Wis. for a termite bioassay.
To begin the termite bioassay, pre-weighed and pre-conditioned southern yellow pine blocks (1×1×1 centimeter) (n=5) were dip-treated with either the biocide compositions prepared above or the individual components. Five control samples were prepared by dipping blocks into DI water.
Each block was conditioned to ensure all solvent had dissipated prior to being subjected to a termite bioassay according to no-choice test procedure (ASTM 1998). Each block was then placed in a lidded test dish with 50 grams sand, […] of DI water, and 1 gram of termites. The dishes were incubated at 27° C. and 80% relative humidity for four weeks. The dishes were examined after one and four weeks for tunneling and mortality. The mortality was scaled using a label of “none” (representing a mortality rating of 0%); “slight” (representing a mortality rating of from 1% to 33%); “moderate” (representing a mortality rating of from 34% to 66%) “heavy” (representing a mortality rating of from 67% to 99%); or “complete” (representing a mortality rating of 100%). At the end of the four-week test period, the blocks were removed from the dishes, cleaned, dried, re-conditioned and weighed to determine weight loss of the block, indicating the relative wood consumption of the block by the termites. Additionally, a visual rating of 10 (representing no attack); 9 (representing a light attack); 7 (representing a moderate attack); 4 (representing a heavy attack); or 0 (representing complete failure in inhibiting termite infestation), was recorded for each sample block.

Another test deals with Coptotermes formosans. Description: Termite bioassay, no-choice test procedure. The conditions noted are these: dip-treated southern yellow pine blocks, 1 gram of termites, four weeks, 27° C., 80% RH. Type of test: in vivo. How it is done: In this Example, various concentrations of a biocide composition were evaluated for its ability to inhibit termite infestation. The ability of the biocide composition was then compared to the ability of disodium octaborate tetrahydrate, a borate component, alone and an untreated control to inhibit termite infestation. Specifically, samples of the subterranean termite, Coptotermes formosans, were collected at the Formosan Termite Research Facility at McNeill, Miss. for a termite bioassay. To begin the termite bioassay, pre-weighed and pre-conditioned southern yellow pine blocks (1×1×1 centimeter) (n=5) were dip-treated with two concentrations of a biocide composition. A first control sample (Control A) was prepared by dipping blocks into DI water. A second control sample (Control B) was prepared by dipping the blocks into 0.28% (by weight) disodium octaborate tetrahydrate. […] Each block was conditioned to ensure all solvent had dissipated prior to being subjected to a termite bioassay according to no-choice test procedure (ASTM 1998). […] Damp filter paper was placed into the lid of each dish to help maintain humidity during a four-week incubation at 27° C. and 80% relative humidity. The dishes were examined daily and mortality of the termites was recorded. […]

A further test relates to P. placenta. Description: Soil block test (AWPA E-10-01), brown-rot decay. Type of test: cell-based, Postia placenta MAD 698. The conditions noted are these: vacuum-treated southern yellow pine blocks, 12 weeks (Example 1 text; Example 4, FIG. 1). How it is done:
(§1) In addition to the mold fungi analysis above, the biocide compositions were tested for their efficacy in preventing decay fungal growth. The decay fungi used in the decay fungal growth analysis included Postia placenta MAD 698 (Fries) Lars. & Lomb., Gloeophyllum trabeum MAD 617 (Pers:Fries) Murrill, and Coriolus versicolor MAD 697 (L.:Fr.) Pilat. The decay fungi, all obtained from the Center of Forest Mycology Research (Forest Products Laboratory, Madison, Wis.) were maintained on 2% malt agar.
(§2) To test the biocide compositions' abilities to inhibit decay fungal growth, soil block culture bottles were prepared according to American Wood Preservers' Association (AWPA) E-10-01 (2003). Southern yellow pine feeders were inoculated with two brown-rot fungus, P. placenta and G. trabeum and maple feeders were inoculated with one white-rot fungus, C. versicolor. Bottles were incubated at 27° C. and 70% relative humidity for three weeks until the fungus completely colonized each feeder. […] The blocks were weighed and the average percentage weight loss was calculated. […]
(§3) To test the biocide compositions' abilities to inhibit decay fungal growth, soil block culture bottles were first prepared according to American Wood Preservers' Association (AWPA) E-10-01 (2003). […] The blocks were weighed and the average percentage weight loss was calculated.

The subject of the next test is G. trabeum. Nature of the test: Soil block test (AWPA E-10-01), brown-rot decay. The conditions noted are these: vacuum-treated southern yellow pine blocks, 12 weeks (Example 1 text; Example 4, FIG. 1). The format is cell-based, Gloeophyllum trabeum MAD 617. How it is done: as §1, §2, §3
The test system of the next test is C. versicolor. Nature of the test: Soil block test (AWPA E-10-01), white-rot decay. Type of test: cell-based, Coriolus versicolor MAD 697. Particulars: vacuum-treated southern yellow pine blocks, 12 weeks (Example 1 text; Example 4, FIG. 1). The procedure: as §1, §2, §3

With `C[C@@H](c1ncncc1F)[C@](O)(Cn1cncn1)c1ccc(F)cc1F` [E, Voriconazole], the “Mold Resistance Average Rating, Southern Pine” value (“Mold Resistance Average Rating” below) in test [1] was 0.04. In test [2], the “Termite Bioassay Mortality Rating” value was “None” and the “Termite Bioassay Attack Rating” value turned out to be 0.0.

In the case of `c1ccc2[nH]c(-c3cscn3)nc2c1` [F, Thiabendazole], in test [1], the “Mold Resistance Average Rating” value stood at 0.0. Besides, in test [2], the “Termite Bioassay Mortality Rating” value is recorded as “None” and the “Termite Bioassay Attack Rating” value amounted to 0.0.

In the case of `O.O.O.O.O=BOB1OB(OB=O)OB2OB([O-])OB([O-])OB(O1)O2.[Na+].[Na+]` [Control B, disodium octaborate tetrahydrate], the “Average Weight Loss (%)” value in the test on Coptotermes formosans was 4.20%.

Turning to Thujaplicin (isopropyltropolone), the “Inhibition of decay by P. placenta, in words” value with P. placenta is on record as “did not inhibit decay”. Further, the “Inhibition of decay by G. trabeum, in words” value in the test on G. trabeum is “did not inhibit decay”. In the test on C. versicolor, the “Inhibition of decay by C. versicolor, in words” value is “did not inhibit decay”.

With `CC(C)c1cccc(O)c(=O)c1` [G, Thujaplicin (isopropyltropolone)], the “Mold Resistance Average Rating” value in test [1] was determined as 3.2. Moreover, in test [2], the “Termite Bioassay Mortality Rating” value is “None” and the “Termite Bioassay Attack Rating” value worked out at 0.0.
